In assay [1] the target is T1, Tyrosinase (Agaricus bisporus) (UniProt O42713).
T1 sequence (whole entry): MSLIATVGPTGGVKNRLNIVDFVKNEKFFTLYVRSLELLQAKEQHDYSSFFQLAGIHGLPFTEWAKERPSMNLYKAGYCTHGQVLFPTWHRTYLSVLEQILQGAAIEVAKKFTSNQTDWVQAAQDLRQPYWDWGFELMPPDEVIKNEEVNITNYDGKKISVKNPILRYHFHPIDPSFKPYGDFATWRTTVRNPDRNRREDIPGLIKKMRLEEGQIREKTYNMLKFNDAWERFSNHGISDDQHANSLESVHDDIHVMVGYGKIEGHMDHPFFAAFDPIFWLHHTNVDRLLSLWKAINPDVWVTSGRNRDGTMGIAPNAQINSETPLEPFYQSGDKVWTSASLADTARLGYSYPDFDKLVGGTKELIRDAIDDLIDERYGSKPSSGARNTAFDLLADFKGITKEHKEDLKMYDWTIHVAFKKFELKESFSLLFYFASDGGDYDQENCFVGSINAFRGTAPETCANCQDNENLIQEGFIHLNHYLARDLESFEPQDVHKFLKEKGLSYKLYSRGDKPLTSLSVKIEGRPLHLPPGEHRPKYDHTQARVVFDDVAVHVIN
Nature of the assay: Inhibition of mushroom tyrosinase using L-tyrosine as substrate at >12.5 uM measured every 1 min for 20 mins by spectrophotometric assay relative to control.

Another assay addresses T2, Tyrosinase (Agaricus bisporus, UniProt O42713).
T2 sequence (O42713 whole entry): T1 sequence (whole entry)
Nature of the assay: Inhibition of mushroom tyrosinase using L-tyrosine as substrate measured every 1 min for 20 mins by spectrophotometric assay.

`C[C@H](CO)[C@@H]1CC[C@]2(C(=O)O)CC[C@]3(C)[C@H](CC[C@@H]4[C@@]5(C)CC[C@@H](O)[C@@](C)(C=O)[C@@H]5C[C@H](O)[C@]43C)[C@@H]12` had an inhibition in assay [1] below 100%.

In turn, `C[C@H](C=O)[C@@H]1CC[C@]2(C(=O)O)CC[C@]3(C)[C@H](CC[C@@H]4[C@@]5(C)CC[C@@H](O)[C@@](C)(C(=O)O)[C@@H]5CC[C@]43C)[C@@H]12` yielded an inhibition in assay [1] below 100%. With `CC1=CC[C@@H](C(C)(C)O[C@@H]2O[C@H](CO)[C@@H](O)[C@H](O)[C@H]2O)CC1`, on Tyrosinase, the IC50 was found to be 16.9 µM. Further, in assay [1], the inhibition is below 100%. Consider `C=C(CO)[C@@H]1CC[C@]2(C(=O)O)CC[C@]3(C)[C@H](C[C@@H](O)[C@@H]4[C@@]5(C)CC[C@@H](O)[C@@](C)(C=O)[C@@H]5CC[C@]43C)[C@@H]12`, for which half-maximal inhibition at Tyrosinase (IC50) required 63.5 µM. The compound also displayed an inhibition in assay [1] below 100%.

Turning to `COC(OC)[C@H](C)[C@@H]1CC[C@]2(C(=O)O)CC[C@]3(C)[C@H](CC[C@@H]4[C@@]5(C)CC[C@@H](O)[C@@](C)(C(=O)O)[C@@H]5CC[C@]43C)[C@@H]12`, the inhibition in assay [1] is below 100%. Turning to `C[C@@]12CCC[C@@](C)(C(=O)O[C@@H]3O[C@H](CO)[C@@H](O)[C@H](O)[C@H]3O)[C@H]1CC[C@@]13C[C@H](CC[C@H]12)[C@@](O)(CO)C3`, the inhibition in assay [1] is below 100%.

As to `CC(=O)[C@@H]1CC[C@]2(C(=O)O)CC[C@]3(C)[C@H](C[C@@H](O)[C@@H]4[C@@]5(C)CC[C@@H](O)C(C)(C(=O)O)[C@@H]5CC[C@]43C)[C@@H]12` (some centres not stated), the inhibition in assay [1] was below 100%. Compound `C=C(CO)[C@@H]1CC[C@]2(C(=O)O)CC[C@]3(C)[C@H](C[C@@H](O)[C@@H]4[C@@]5(C)CC[C@@H](O)[C@@](C)(C(=O)O)[C@@H]5CC[C@]43C)[C@@H]12` gave an inhibition in assay [1] below 100%.

Regarding `C=C(CO)[C@@H]1CC[C@]2(C(=O)O)CC[C@]3(C)[C@H](C[C@@H](O)[C@@H]4[C@@]5(C)CC[C@@H](O)C(C)(C)[C@@H]5CC[C@]43C)[C@@H]12`, in assay [1], the inhibition was below 100%. As to `C[C@]12CC[C@@H](O)[C@@](C)(C(=O)O)[C@@H]1CC[C@]1(C)[C@@H]2CC[C@@H]2[C@H]3[C@H]([C@](C)(O)CO)CC[C@]3(C(=O)O)CC[C@]21C`, on Tyrosinase, the IC50 worked out at 8.61 µM. In assay [1], the inhibition is below 100%. For `C=C(C)[C@@H]1CC[C@]2(C(=O)O)CC[C@]3(C)[C@H](CC[C@@H]4[C@@]5(C)CC[C@@H](O)C(C)(C(=O)O)[C@@H]5CC[C@]43C)[C@@H]12` (some centres not stated), the inhibition in assay [1] is below 100%. Compound `C=C(C)[C@@H]1CC[C@]2(C(=O)O)CC[C@]3(C)[C@H](CC[C@@H]4[C@@]5(C)CC[C@@H](O)[C@@](C)(C=O)[C@@H]5CC[C@]43C)[C@@H]12` returned an IC50 against Tyrosinase of 25.8 µM. In assay [1], this compound registered an inhibition below 100%. On to `C=C(C)[C@@H]1CC[C@]2(C(=O)O)CC[C@]3(C)[C@H](C[C@@H](O)[C@@H]4[C@@]5(C)CC[C@@H](O)C(C)(C=O)[C@@H]5CC[C@]43C)[C@@H]12` (some centres not stated), for which the inhibition in assay [1] was below 100%.

The values are drawn from ChEMBL document CHEMBL3751802, “Identification of six new lupane-type triterpenoids from Acanthopanax koreanum leaves and their tyrosinase inhibitory activities” (Bioorg Med Chem Lett, 2016).
